Measured values reported in patent US10159671B2, “Compositions of multiple aripiprazole prodrugs” (ALKERMES PHARMA IRELAND LIMITED, priority 2016, dated 2018).

Tests used:
Solubility in water = format: physicochemical
Experimental: The present invention combines particle populations of at least two distinct aripiprazole prodrugs. In a preferred embodiment the composition comprises a particle population of aripiprazole lauroxil and aripiprazole cavoxil particles. The physical and chemical properties of the aripiprazole prodrugs within the scope of the present invention can vary considerably. For instance, aripiprazole cavoxil was determined to have a solubility in water of less than about 1 μg/ml, whereas aripiprazole lauroxil was determined to have a solubility of less than about 4 ng/mL.

[1] = Solubility in a solution comprising 1.5% (w/w) polysorbate 20; format: physicochemical; settings: aqueous solution with 1.5% (w/w) polysorbate 20, aqueous with cosolvent or surfactant or cyclodextrin; 1.5% (w/w) polysorbate 20 at 40° C., pH 7
Excerpt: These represent significant differences in the water solubility of the aforementioned prodrugs.

| Compound | solubility (Solubility in water) [µg/mL] | solubility [1] [µg/mL] |
| --- | --- | --- |
| CCCCCC(=O)OCN1C(=O)CCc2ccc(OCCCCN3CCN(c4cccc(Cl)c4Cl)CC3)cc21 [aripiprazole cavoxil, (7-(4-(4-(2,3-Dichlorophenyl)piperazin-1-yl)butoxy)-2-oxo-3,4-dihydroquinolin-1(2H)yl)methyl hexanoate] | < 1 | < 50 |
| CCCCCCCCCCCC(=O)OCN1C(=O)CCc2ccc(OCCCCN3CCN(c4cccc(Cl)c4Cl)CC3)cc21 [aripiprazole lauroxil, Dodecanoic acid, [7-[4-[4-(2,3-dichlorophenyl)-1-piperazinyl]butoxy]-3,4-dihydro-2-oxo-1(2H)-quinolinyl]methyl ester] | < 0.004 | < 2 |
